≈ marks a conversion by molar mass, not a printed value.
Experiments:
E. coli Juhl [1] = assay: In vivo antibacterial activity in infected mice, E. coli Juhl; conditions: Escherichia coli, im, just after the bacterial challenge, read-out: PD50, E. coli Juhl
Experimental: (§1) In vivo antibacterial activity was determined against three bacterial infections (S. aureus Smith, E. coli Juhl and P. aeruginosa A98483A) by intramuscular administration to mice just after the bacterial challenge. PD50 values are summarized in Table 2 in comparison with the MIC values against the corresponding organisms.

[2] = system: M. morganii (1), Ent. cloacae (2) and Ser. marcescens (2); assay: MIC by two-fold serial agar dilution, group Gn-II; format: cell-based; conditions: Gn-II (5), Mueller-Hinton agar, read-out: Geometric mean of MIC, Gn-II
Experimental: (§2) Minimum inhibitory concentrations (MICs) for the compounds in the above examples were determined against thirty two strains of test organisms by a two-fold serial agar dilution method in Mueller-Hinton agar. Geometric means of MICs were calculated against six groups of the test organisms which are classified as follows and summarized in Table 1.
Gn-II M. morganii (1), Ent. cloacae (2) and Ser.

[3] = system: Cephalothin(CET)-resistant E. coli (3) and Kl. pneumoniae (2); assay: MIC by two-fold serial agar dilution, group Gn-Ib; format: cell-based; conditions: Escherichia coli, read-out: Geometric mean of MIC, Gn-Ib
Experimental: as §2
Gn-Ib Cephalothin(CET)-resistant E. coli (3) and Kl.

P. aeruginosa A9843A [4] = assay: In vivo antibacterial activity in infected mice, P. aeruginosa A9843A; conditions: Pseudomonas aeruginosa, im, read-out: PD50, P. aeruginosa A9843A
Experimental: as §1

E. coli Juhl [5] = assay: MIC against E. coli Juhl; format: cell-based; conditions: Escherichia coli
Experimental: as §2, §1

S. aureus Smith [6] = assay: In vivo antibacterial activity in infected mice, S. aureus Smith; conditions: Staphylococcus aureus, im, just after the bacterial challenge, read-out: PD50, S. aureus Smith
Experimental: as §1

S. aureus Smith [7] = assay: MIC against S. aureus Smith; format: cell-based; conditions: Staphylococcus aureus
Experimental: as §2, §1

[8] = system: Penicillin(PC)-resistant S. aureus (5); assay: MIC by two-fold serial agar dilution, group Gp-Ib; format: cell-based; conditions: Staphylococcus aureus, Gp-Ib (5), Mueller-Hinton agar, read-out: Geometric mean of MIC, Gp-Ib
Experimental: as §2
Gp-Ib Penicillin(PC)-resistant S. aureus (5).

Ps. aeruginosa (7) = assay: MIC by two-fold serial agar dilution, group Gn-III; format: cell-based; conditions: Pseudomonas aeruginosa, Gn-III (7), Mueller-Hinton agar, read-out: Geometric mean of MIC, Gn-III
Experimental: as §2
Gn-III Ps. aeruginosa (7).

[9] = system: Penicillin(PC)-sensitive S. aureus (5 strains); assay: MIC by two-fold serial agar dilution, group Gp-Ia; format: cell-based; conditions: Staphylococcus aureus, Gp-Ia (5 strains), Mueller-Hinton agar, read-out: Geometric mean of MIC, Gp-Ia
Experimental: as §2
Gp-Ia Penicillin(PC)-sensitive S. aureus (5 strains).

P. aeruginosa A9843A [10] = assay: MIC against P. aeruginosa A9843A; format: cell-based; conditions: Pseudomonas aeruginosa, read-out: MIC, P. aeruginosa A9843A
Experimental: as §2, §1

[11] = system: Cephalothin(CET)-sensitive E. coli (2), Kl. pneumoniae (1) and Pr. mirabilis (2); assay: MIC by two-fold serial agar dilution, group Gn-Ia; format: cell-based; conditions: Gn-Ia (5), Mueller-Hinton agar, read-out: Geometric mean of MIC, Gn-Ia
Experimental: as §2
Gn-Ia Cephalothin(CET)-sensitive E. coli (2), Kl.
pneumoniae (1) and Pr. mirabilis (2).

Row | Compound | ED50 (E. coli Juhl [1]) | MIC [2] | MIC [3] | ED50 (P. aeruginosa A9843A [4]) | MIC (E. coli Juhl [5]) | ED50 (S. aureus Smith [6]) | MIC (S. aureus Smith [7]) | MIC [8] | MIC (Ps. aeruginosa (7)) | MIC [9] | MIC (P. aeruginosa A9843A [10]) | MIC [11]
1 | C[N+]1(CC2=C(C(=O)[O-])N3C(=O)C(NC(=O)/C(=N\OC(C(=O)O)c4ccc(O)c(O)c4)c4csc(N)n4)[C@H]3SC2)Cc2cc(O)c(O)cc2C1 (stereo partly drawn) [Ie, 7-[2-(2-Aminothiazol-4-yl)-2-[(Z)-[carboxy(3,4-dihydroxy-phenyl)methyl]oxyimino]acetamido]-3-(5,6-dihydroxy-2-methyl-2-isoindolinio)methyl-3-cephem-4-carboxylate] | 0.045 mg/kg | 1.6 mg/L (≈ 2.24 µM) | 0.46 mg/L (≈ 0.645 µM) | 2.1 mg/kg | 0.8 mg/L (≈ 1.12 µM) | 2.4 mg/kg | 12.5 mg/L (≈ 17.5 µM) | 13 mg/L (≈ 18.2 µM) | 0.3 mg/L (≈ 0.421 µM) | 8.3 mg/L (≈ 11.6 µM) | 0.4 mg/L (≈ 0.561 µM) | 0.46 mg/L (≈ 0.645 µM)
2 | Nc1nc(/C(=N/OCc2cc(O)c(O)cc2C(=O)O)C(=O)NC2C(=O)N3C(C(=O)[O-])=C(/C=C/C[n+]4ccccc4)CSC23)cs1 (stereo not drawn) [Id] | 0.017 mg/kg | 0.46 mg/L (≈ 0.705 µM) | 0.17 mg/L (≈ 0.26 µM) | 7.2 mg/kg | 0.1 mg/L (≈ 0.153 µM) | 1 mg/kg | 0.8 mg/L (≈ 1.23 µM) | 1.6 mg/L (≈ 2.45 µM) | 0.88 mg/L (≈ 1.35 µM) | 0.61 mg/L (≈ 0.935 µM) | 0.8 mg/L (≈ 1.23 µM) | 0.087 mg/L (≈ 0.133 µM)
3 | C[N+]1(CC2=C(C(=O)[O-])N3C(=O)C(NC(=O)C(=NOC(C(=O)O)c4ccc(O)c(O)c4)c4csc(N)n4)C3SC2)CCCC1 (stereo not drawn) [Ia, 7-[(2-(2-Aminothiazol-4-yl)-2[(Z)-[carboxy(3,4-dihydroxyphenyl)methyl]oxyimino]acetamido]-3-(1-methylpyrrolidinio)methyl-3-cephem-4-carboxylate] | 0.14 mg/kg | 0.8 mg/L (≈ 1.26 µM) | 0.4 mg/L (≈ 0.632 µM) | 6.3 mg/kg | 0.2 mg/L (≈ 0.316 µM) | 5.6 mg/kg | 1.6 mg/L (≈ 2.53 µM) | 3.1 mg/L (≈ 4.9 µM) | 1.6 mg/L (≈ 2.53 µM) | 1.4 mg/L (≈ 2.21 µM) | 1.6 mg/L (≈ 2.53 µM) | 0.3 mg/L (≈ 0.474 µM)
4 | C/C=C\C1=C(C(=O)O)N2C(=O)C(NC(=O)/C(=N\OC(C(=O)O)c3ccc(O)c(O)c3)c3csc(N)n3)C2SC1 (stereo not drawn) [Ib] | 1.5 mg/kg | 7.3 mg/L (≈ 12.7 µM) | 0.35 mg/L (≈ 0.608 µM) | 17 mg/kg | 0.4 mg/L (≈ 0.695 µM) | 6.8 mg/kg | 0.8 mg/L (≈ 1.39 µM) | 2.1 mg/L (≈ 3.65 µM) | 5.1 mg/L (≈ 8.86 µM) | 0.92 mg/L (≈ 1.6 µM) | 3.1 mg/L (≈ 5.39 µM) | 0.17 mg/L (≈ 0.295 µM)
5 | Nc1nc(/C(=N/OC(C(=O)O)c2ccc(O)c(O)c2)C(=O)NC2C(=O)N3C(C(=O)[O-])=C(/C=C/C[n+]4ccccc4)CSC23)cs1 (stereo not drawn) [Ic] | 0.067 mg/kg | 0.46 mg/L (≈ 0.705 µM) | 0.15 mg/L (≈ 0.23 µM) | 12 mg/kg | 0.05 mg/L (≈ 0.0766 µM) | 1.4 mg/kg | 0.4 mg/L (≈ 0.613 µM) | 0.4 mg/L (≈ 0.613 µM) | 2.3 mg/L (≈ 3.52 µM) | 0.26 mg/L (≈ 0.398 µM) | 3.1 mg/L (≈ 4.75 µM) | 0.076 mg/L (≈ 0.116 µM)

Reference: patent US5095012A, “Antibiotic C-7 catechol-substituted cephalosporin compounds, compositions, and method of use thereof” (Bristol-Myers Squibb Company, priority 1990, dated 1992)
